Assay results published in US6624156B2, “Methods of making and method of using hybrid cholinergic agents and compositions” (Board of Trustees of the University of Arkansas, priority 2001, dated 2003).

Tests used:
M3 muscarinic receptor [1] = target: T1, M3 muscarinic receptor (Rattus norvegicus, UniProt P08483); test: Inhibition of 3H-N-methylscopolamine binding to CHO cells expressing M3 muscarinic receptors; details: for IC50: read-out: IC50 (inhibition of 3H-NMS binding), CHO cells expressing M3, 0.6 nM 3H-NMS, 45 min 37° C., mean±SE of at least three assays
T1 construct: host or cells: CHO cells
Description: The objective of this experiment was to evaluate whether LCC interacted with muscarinic M3 receptors. CHO cells expressing M3 muscarinic receptors were obtained from the American Type Culture Collection (ATCC), MD. The interaction of LCC with the M3 receptors was determined by an assay which measures inhibition of ^3H-N-methylscopolamine (^3H-NMS) binding to the M3 receptor. […] Lithocholyltaurine and lithocholylglycine are physiological conjugates of lithocholic acid.
5×10^5 CHO cells (0.5 ml) were incubated for 45 minutes at 37° C. with 0.6 nM ^3H-NMS alone or with unlabeled ligand. Nonspecific binding was determined in the presence of 10.0 μM unlabeled NMS. The reaction was terminated by centrifuging 0.5 ml of cell suspension at 10,000 g for 7 minutes at room temperature. 100 μl of supernatant was sampled for determination of free ligand concentration, and the remaining liquid was carefully decanted. The cell pellet was washed, drained, and dissolved in 100 μl Soluene 350.

M3 muscarinic receptor [2] = target: T1, M3 muscarinic receptor; test: Acetylcholine-induced inositol phosphate (IP) formation in CHO-M3 cells; format: cell-based
Description: Post-receptor (downstream) actions of LCC were determined by measuring increases in inositol phosphates (IP) after incubating cells with 3H-myo-inositol. CHO cell inositol 1,4,5-triphosphate (IP3) was determined by the methods of Hu and El-Fakahany (1990, Mol. Pharmacol. 38:895-903) and Labarca et al., (1987, Methods Enzymol. 141:192-201). 5×10^4 cells/well were incubated with 1.0 μCi/ml myo-[2-^3H]inositol for 24 hour at 37° C., treated with 20 mM LiCl for 30 minutes at 37° C. Cells were then incubated with the test agents for 30 minutes at 37° C. The IP3 fraction was separated by ion-exchange chromatography (AG2 X8 resin), and the dpm in this fraction were determined by liquid scintillation.
The highest LCC concentration tested (0.1 mM) reduced ACh-induced IP production by 80%, thereby confirming competition of LCC and ACh for the same receptor, indicating interaction of LCC and ACh with the same receptor. Thus, LCC is an M3 muscarinic receptor antagonist.

T1 sequence (P08483 whole entry): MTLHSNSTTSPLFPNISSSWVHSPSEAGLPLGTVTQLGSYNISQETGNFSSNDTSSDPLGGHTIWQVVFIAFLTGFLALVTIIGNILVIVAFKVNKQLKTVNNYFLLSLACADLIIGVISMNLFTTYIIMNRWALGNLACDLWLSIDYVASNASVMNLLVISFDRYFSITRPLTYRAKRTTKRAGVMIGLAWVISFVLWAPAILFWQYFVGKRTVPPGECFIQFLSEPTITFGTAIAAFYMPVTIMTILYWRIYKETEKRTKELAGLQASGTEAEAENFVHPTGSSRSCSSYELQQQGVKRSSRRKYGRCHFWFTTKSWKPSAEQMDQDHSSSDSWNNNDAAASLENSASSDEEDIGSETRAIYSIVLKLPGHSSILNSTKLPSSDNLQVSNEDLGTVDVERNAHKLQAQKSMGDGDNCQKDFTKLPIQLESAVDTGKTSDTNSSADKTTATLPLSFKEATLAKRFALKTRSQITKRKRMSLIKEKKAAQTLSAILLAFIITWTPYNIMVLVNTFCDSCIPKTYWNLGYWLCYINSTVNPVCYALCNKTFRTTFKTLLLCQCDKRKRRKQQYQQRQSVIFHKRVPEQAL

SMILES | IC50 (M3 muscarinic receptor [1]) | potency relative to acetylcholine at inhibiting 3H-NMS binding (M3 muscarinic receptor [1]; LCC vs acetylcholine) | potency relative to carbachol at inhibiting 3H-NMS binding (M3 muscarinic receptor [1]; LCC vs carbachol) | inhibition of ACh-induced IP formation compared with equal concentrations of LCT (M3 muscarinic receptor [2]; 10.0 μM acetylcholine) | reduction of ACh-induced IP production (M3 muscarinic receptor [2]; 0.1 mM LCC, 10.0 μM acetylcholine) | effect of agent alone on IP formation (M3 muscarinic receptor [2]; LCC alone)
C[C@H](CCC(=O)NCC(=O)O)[C@H]1CC[C@H]2[C@@H]3CC[C@@H]4C[C@H](O)CC[C@]4(C)[C@H]3CC[C@]12C [Lithocholylglycine, reference compound] | 228 ± 41.2 µM |  |  |  |  | 
C[C@H](CCC(=O)NCCS(=O)(=O)O)[C@H]1CC[C@H]2[C@@H]3CC[C@@H]4C[C@H](O)CC[C@]4(C)[C@H]3CC[C@]12C [Lithocholyltaurine, lithocholyltaurine, reference compound] | 165 ± 38.5 µM |  |  |  |  | 
C[C@H](CCC(=O)OCC[N+](C)(C)C)[C@H]1CC[C@H]2[C@@H]3CC[C@@H]4C[C@H](O)CC[C@]4(C)[C@H]3CC[C@]12C [LCC, lithocholylcholine] | 6.4 ± 0.8 µM | about 2 times | about 60 times | overall greater extent | 80% | not alter IP formation
